What was measured:
[1] = tested on: intracavernous pressure (ICP/BP) response; assay: in vivo model on erectile function, cavernous nerve stimulation; parameters: species or system rat; conditions: 0.1-1.0 mg/kg i.v., anesthetized rats
From the text: The in vivo model on erectile function is described fully in the scientific literature [Rehman, J., Chenven, E., Brink, P. Peterson, B., Wolcott, B., Wen, Y. P., Melman, A., Christ, G.: Diminished neurogenic but not pharmacological erections in the 2- to 3-month experimentally diabetic F-344 rat. Am. J. Physiol. 272: H1960-H1971, (1997)]. Briefly, rats (250-600 g) were anesthetized using sodium pentobarbital, the abdomen opened and the cavernous nerve identified. A pressure catheter was placed in the right corpus cavernosum (crus) to measure intracavernous pressure (ICP). A second catheter was introduced into the carotid artery to measure blood pressure. Test compound (0.1, 0.3 and 1 mg/kg iV.) or vehicle (PEG 400) was given via a catheter placed into the jugular vein.
Control intracavernous pressure responses were elicited by electrically stimulating the cavernous nerve via bipolar stimulating electrodes (20 Hz, 0.22 ms pulse width). Stimulus amplitude (0.2-20 mA) was adjusted to produce a submaximal intracavernous pressure response (typically 0.2 or 0.5 mA). A series of control intracavernous pressure responses were then obtained using a constant stimulus amplitude. Test compound or vehicle was then administered (200 μl i.v bolus) and the cavernous nerve was restimulated to evoke a cavernous pressure response at various times post-drug administration. […]

[2] = tested on: cloned mammalian (mSlo or hSlo) BK channels; assay: BK-mediated outward current, two-electrode voltage clamp in Xenopus oocytes; assay type: cell-based; conditions: at 20 μM; percent increase over BK current in controls; IBTX-sensitive current; at least 5 oocytes
Protocol: The ability of compounds described in the present invention to open BK channels and increase whole-cell outward (K^+) BK-mediated currents was assessed under voltage-clamp conditions by determining their ability to increase cloned mammalian (mSlo or hSlo) BK --mediated outward current heterologously expressed in Xenopus oocytes [Butler, A., et al., Science, 261: 221-224 (1993); and Dworetzky, S. I., et al., Mol. Brain Res., 27: 189-193 (1994)]. The two BK constructs employed represent nearly structurally identical homologous proteins, and have proven to be pharmacologically identical in our tests. To isolate BK current from native (background, non-BK) current, the specific and potent BK channel-blocking toxin iberiotoxin (IBTX) [Galvez, A., et al., J. Biol. Chem., 265: 11083-11090 (1990)] was employed at a supramaximal concentration (50 nM). The relative contribution of BK channels current to total outward current was determined by subtraction of the current remaining in the presence of IBTX (non-BK current) from the current profiles obtained in all other experimental conditions (control, drug, and wash). […] All compounds were tested in at least 5 oocytes and are reported at the single concentration of 20 μM; the effect of the selected compounds of Formula I on BK current was expressed as the percent of control IBTX-sensitive current and is listed in Table I. Recordings were accomplished using standard two-electrode voltage clamp techniques [Stuhmer, W., et al., Methods in Enzymology, Vol. 207: 319-339 (1992)]; voltage-clamp protocols consisted of 500-750 ms duration step depolarizations from a holding potential of -60 mV to +140 mV in 20 mV steps. The experimental media (modified Barth's solution) consisted of (in mM): NaCl (88), NaHCO3 (2.4), KCl (1.0), HEPES (10), MgSO4 (0.82), Ca(NO3)2 (0.33), CaCl2 (0.41); pH 7.5.

cortical infarct volume = assay: permanent focal ischemia, middle cerebral artery occlusion (MCAO) model; assay type: in vivo, spontaneously hypertensive rat; conditions: 0.003 mg/kg i.v. single bolus 2 hours after MCAO; infarct measured 24 hours after MCAO; vs vehicle-treated control
From the text: To determine the ability of these compounds to reduce cell loss resulting from neuronal ischemia, a standard rodent model of permanent focal ischemia, involving occlusion of the middle cerebral artery in the spontaneously hypertensive rat (middle cerebral artery occlusion (MCAO) model) was employed [Tamura, A., et al., Journal of Cerebral Blood Flow and Metabolism, Volume 1, 53-60, (1981)].
Selected compounds have been evaluated in the focal stroke model involving permanent MCAO in the spontaneously hypertensive rat. This procedure results in a reliably large neocortical infarct volume that is measured by means of vital dye exclusion in serial slices through the brain 24 hours after MCAO. In the present test, compounds were administered using an intravenous route of administration at 2 hours after occlusion.

Structure (SMILES) | ICP/BP ratio elicited by sub-maximal stimulation of the cavernous nerve [1] | BK Current [2] | reduction of cortical infarct volume (cortical infarct volume)
O=c1[nH]c2ccc(C(F)(F)F)cc2c(-c2cc(Cl)ccc2O)c1CCO [Example 20, 4-(5-Chloro-2-hydroxyphenyl)-3-(2-hydroxyethyl)-6-(trifluoromethyl)-2(1H)-quinolinone] | significant increase | ++ (++ = >200%) | 
COc1ccc(Cl)cc1-c1c(CO)c(=O)[nH]c2cc(C(F)(F)F)ccc12 [Example 3, 4-(5-Chloro-2-methoxyphenyl)-3-(hydroxymethyl)-7-(trifluoromethyl)-2(1H)-quinolinone] |  | + (+ = 100-200%) | 
COc1ccc(Cl)cc1-c1c(C=NO)c(=O)[nH]c2ccc(C(F)(F)F)cc12 [Example 39, 4-(5-Chloro-2-methoxyphenyl)-1,2-dihydro-2-oxo-6-(trifluoromethyl)-3-quinolinecarboxaldehyde oxime] |  | ++ (++ = >200%) | 
COc1ccc(Cl)cc1-c1c(CCCO)c(=O)[nH]c2ccc(C(F)(F)F)cc12 [Example 8, 4-(5-Chloro-2-methoxyphenyl)-3-(3-hydroxypropyl)-6-(trifluoromethyl)-2(1H)-quinolinone] |  | ++ (++ = >200%) | 
O=c1[nH]c2ccc(C(F)(F)F)cc2c(-c2cc(Cl)ccc2O)c1/C=C(\F)CO [Example 17, (Z)-4-(5-Chloro-2-hydroxyphenyl)-3-(2-fluoro-3-hydroxy-1-propenyl)-6-(trifluoromethyl)-2(1H)-quinolinone] |  | + (+ = 100-200%) | 
COc1ccc(Cl)cc1-c1c(CCO)c(=O)[nH]c2ccc(C(F)(F)F)cc12 [Example 21, 4-(5-Chloro-2-methoxyphenyl)-3-(2-hydroxyethyl)-6-trifluoromethyl-2(1H)-quinolinone] |  | ++ (++ = >200%) | about 25%
O=c1[nH]c2ccc(C(F)(F)F)cc2c(-c2cc(Cl)ccc2O)c1Cc1ccc(O)cc1 [Example 30, 4-(5-Chloro-2-hydroxyphenyl)-3-[(4-hydroxyphenyl)methyl]-6-(trifluoromethyl)-2(1H)-quinolinone] |  | ++ (++ = >200%) | 
COc1ccc(Cl)cc1-c1c(/C=C(/F)CO)c(=O)[nH]c2ccc(C(F)(F)F)cc12 [Example 18, (E)-4-(5-Chloro-2-methoxyphenyl)-3-(2-fluoro-3-hydroxy-1-propenyl)-6-(trifluoromethyl)-2(1H)-quinolinone] |  | + (+ = 100-200%) | 
Cc1c(-c2cc(Cl)ccc2O)c2cc(C(F)(F)F)ccc2[nH]c1=O [Example 34, 4-(5-Chloro-2-hydroxyphenyl)-3-methyl-6-(trifluoromethyl)-2(1H)-quinolinone] |  | ++ (++ = >200%) | 
Nc1ccc(-c2c(-c3cc(Cl)ccc3O)c3cc(C(F)(F)F)ccc3[nH]c2=O)cc1 [Example 32, 4-(5-Chloro-2-hydroxyphenyl)-3-(4-aminophenyl)-6-(trifluoromethyl)-2(1H)-quinolinone] |  | ++ (++ = >200%) | 
O=c1[nH]c2ccc(C(F)(F)F)cc2c(-c2cc(Cl)ccc2O)c1CO [Example 9, 4-(5-Chloro-2-hydroxyphenyl)-3-(hydroxymethyl)-6-(trifluoromethyl)-2(1H)-quinolinone] |  | ++ (++ = >200%) | 
COc1ccc(Cl)cc1-c1c(C=O)c(=O)[nH]c2ccc(C(F)(F)F)cc12 [Example 4, 4-(5-Chloro-2-methoxyphenyl)-1,2-dihydro-2-oxo-6-(trifluoromethyl)-3-quinolinecarboxaldehyde] |  | + (+ = 100-200%) | 

Source: US6184231A, “3-substituted-4-arylquinolin-2-one derivatives as potassium channel modulators” (priority 1999, dated 2001)
